# According to US20030095982A1, “Fraction of Cordyceps sinensis and method of isolation thereof” (priority 2001, published 2003):
# Test system: ovalbumin (OA) induced bronchial hyperresponsiveness
# Assay: Bronchoalveolar lavage cell counts, OA model in BALBc mice
# Type: in vivo
# Protocol: After completion of the pulmonary function tests, BAL was performed using 1 mL normal saline twice (total 2 mL). The BAL fluid was collected into plastic flasks containing 1,500 units of heparin and then strained through 1 layer of surgical gauze and centrifuged at 500 g for 5 min. The cell pellet was washed 3 times with sterile saline solution and resuspended in RPMI-1640. A small portion was taken for evaluation of cell number and viability, as assessed by trypan blue exclusion.
# Differential counts were obtained using a cytocentrifuge preparation (Cytospin; Shandon Southern Instruments, Sewickley, Pa.) stained with Liu's stain (modified May-Giemsa stain).
# [1] = BAL fluid, BALBc mice, 4 mg/Kg intraperitoneally 30 minutes before OA inhalation provocation
smiles,measurement,setting,value
"CC(C)[C@@H](C)C=C[C@@H](C)[C@H]1CC[C@H]2C3=C[C@@H](O)[C@@]4(O)C[C@@H](O)CC[C@]4(C)[C@H]3CC[C@]12C [F8, (24R)-ergosta-7,22-diene-3β, 5α, 6β,-triol]",Eosinophil Cell count,[1],0.12 ± 0.04 (×10^4)/mL
same,Eosinophil Percentage of total cell count (%),[1],6.3 ± 1.6 %
same,Lymphocyte Cell count,[1],0.10 ± 0.04 (×10^4)/mL
same,Lymphocyte Percentage of total cell count (%),[1],5.2 ± 1.6 %
same,Macrophage Cell count,[1],1.82 ± 0.21 (×10^4)/mL
same,Macrophage Percentage of total cell count (%),[1],84.2 ± 3.4 %
same,Neutrophil Cell count,[1],0.13 ± 0.03 (×10^4)/mL
same,Neutrophil Percentage of total cell count (%),[1],5.1 ± 1.0 %
same,Total cell count,[1],2.23 ± 0.64 (×10^4)/mL
same,"BAL total cell counts, eosinophils and lymphocytes versus group II","mice, treatment study (administered after OA challenge)",Group II had higher total cell counts than other 2 groups
